From ChEMBL document CHEMBL1201862, “PubChem BioAssay data set” (2004)
Calls of active or inactive are those of the source.

How the values were obtained:
[1] = target: Glucose-6-phosphate 1-dehydrogenase (Homo sapiens, UniProt P11413); test: human G6PD enzyme inhibitors, dose response, selectivity assay for P. falciparum G6PD inhibitor project, biochemical, fluorescence (AID 504792); type: functional
Leucine aminopeptidase = target: T1, Leucine aminopeptidase (Plasmodium falciparum 3D7, UniProt Q8IL11); test: P. falciparum M17LAP inhibitors, primary screen, biochemical, fluorogenic H-Leu-NHMec substrate, 1536-well (AID 1619); type: functional
T1 sequence (Q8IL11 whole entry): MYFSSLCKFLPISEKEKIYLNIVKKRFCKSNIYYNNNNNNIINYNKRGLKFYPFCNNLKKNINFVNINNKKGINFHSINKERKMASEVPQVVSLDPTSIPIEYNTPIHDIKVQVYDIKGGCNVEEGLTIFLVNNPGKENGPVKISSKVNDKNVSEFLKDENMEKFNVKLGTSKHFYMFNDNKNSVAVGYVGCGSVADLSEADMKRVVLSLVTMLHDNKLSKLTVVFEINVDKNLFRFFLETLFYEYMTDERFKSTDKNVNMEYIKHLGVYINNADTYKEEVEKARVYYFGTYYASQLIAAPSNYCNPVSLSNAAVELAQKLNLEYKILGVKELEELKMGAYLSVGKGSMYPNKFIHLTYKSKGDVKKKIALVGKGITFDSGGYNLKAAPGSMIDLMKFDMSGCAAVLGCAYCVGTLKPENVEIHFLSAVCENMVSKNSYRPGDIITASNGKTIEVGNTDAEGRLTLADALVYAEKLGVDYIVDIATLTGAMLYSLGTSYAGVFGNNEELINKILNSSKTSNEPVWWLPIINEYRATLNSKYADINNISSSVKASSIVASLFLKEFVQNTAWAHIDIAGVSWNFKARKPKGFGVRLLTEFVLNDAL

[2] = target: G-protein coupled receptor 55 (Homo sapiens, UniProt Q9Y2T6); test: GPR55 antagonists blocking LPI-driven arrestin recruitment, primary screen, imaging, U2OS, beta-arrestin-GFP, LPI agonist (AID 2013); type: functional;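 note: antagonist potency measured as reduced agonist-driven arrestin aggregation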
[3] = target: T2, Small ubiquitin-related modifier 1 (Homo sapiens, UniProt P63165); test: inhibitors of SUMO1 peptide binding, dose response, biochemical, fluorescence polarization, uHTS hits (AID 624382); type: functional; conditions: read-out: IC50_Mean
[4] = target: T2, Small ubiquitin-related modifier 1; test: inhibitors of SUMO1 partner interactions, dose response, biochemical, FRET (AID 624383); type: functional; conditions: read-out: IC50_Mean
BJ [5] = test: cytotoxicity toward BJ-TERT fibroblasts, dose response, cell-based, RAS-independent, luminescence (AID 1933); type: functional; conditions: Homo sapiens
[6] = A Cell Based Secondary Assay To Explore Cytotoxicity of Compounds that Sensitize Mycobacterium Tuberculosis to Beta-Lactam Antibiotics.; type: functional
BJ [7] = test: cells; type: functional, cell-based; conditions: Homo sapiens
BJ [8] = test: cytotoxicity toward BJ-TERT-LT-ST fibroblasts, dose response, cell-based, RAS-independent, luminescence (AID 1935); type: functional; conditions: Homo sapiens;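 note: BJ fibroblasts immortalized with TERT plus LT and ST oncogenes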
[9] = cytotoxicity toward DRD oncogenic fibroblasts, dose response, cell-based, non-viral oncogenic, luminescence (AID 1934); type: functional; conditions: Homo sapiens
Melanocortin receptor 4 = Melanocortin receptor 4 (Homo sapiens, UniProt P32245); type: functional, cell-based;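 note: Cell-based assay with luminescence read-out, confirmatory dose-response testing for agonist activity of biased ligands at MC4R; human U2OS cells with tagged receptor and beta-arrestin; potency of agonists that increase receptor coupling to beta-arrestin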
[10] = target: T3, Heat shock factor protein 1 (Mus musculus, UniProt P38532); test: HSF1 potentiators in luciferase reporter cells, confirmation, cell-based, NIH3T3, luminescence, dose retest (AID 435004); type: functional;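 note: stress induced by proteasome inhibitor MG132 added 30 min after compound; luciferase reporter driven by HSF1 response element in NIH3T3 cells; actives raise luminescence as potentiators of the MG132 stress response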
T3 sequence (P38532 whole entry): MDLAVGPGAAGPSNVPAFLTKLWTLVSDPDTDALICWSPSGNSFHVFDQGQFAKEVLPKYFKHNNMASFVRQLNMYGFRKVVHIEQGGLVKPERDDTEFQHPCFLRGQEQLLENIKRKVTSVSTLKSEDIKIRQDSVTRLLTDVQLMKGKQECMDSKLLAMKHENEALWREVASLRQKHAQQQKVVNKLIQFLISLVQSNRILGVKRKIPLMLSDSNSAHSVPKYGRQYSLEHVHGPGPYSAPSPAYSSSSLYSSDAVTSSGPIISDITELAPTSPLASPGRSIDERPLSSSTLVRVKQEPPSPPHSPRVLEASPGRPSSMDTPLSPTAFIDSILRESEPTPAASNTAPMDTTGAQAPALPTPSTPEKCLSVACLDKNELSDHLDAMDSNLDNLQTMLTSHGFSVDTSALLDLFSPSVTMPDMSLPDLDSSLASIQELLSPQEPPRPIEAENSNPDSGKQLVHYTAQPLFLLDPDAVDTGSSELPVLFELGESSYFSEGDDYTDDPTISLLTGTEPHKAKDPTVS

HEK293 = test: inhibitors of LMP1-driven NF-kB reporter, dose response, cell-based, HEK293, luciferase, cherry-pick (AID 588343); type: functional; conditions: Homo sapiens
INS1 = test: beta cell apoptosis inhibitors, cytokine rescue, dose response, luminescence, retest (AID 449756); type: functional, cell-based; conditions: Rattus norvegicus;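 note: cell death triggered by IL-1 beta plus TNF-alpha plus IFN-gamma mixture; protective hits raise ATP signal compared with cytokine alone wells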
[11] = target: Glyceraldehyde-3-phosphate dehydrogenase (Homo sapiens, UniProt P04406)
Chain of Glyceraldehyde-3-phosphate dehydrogenase (P04406 whole entry): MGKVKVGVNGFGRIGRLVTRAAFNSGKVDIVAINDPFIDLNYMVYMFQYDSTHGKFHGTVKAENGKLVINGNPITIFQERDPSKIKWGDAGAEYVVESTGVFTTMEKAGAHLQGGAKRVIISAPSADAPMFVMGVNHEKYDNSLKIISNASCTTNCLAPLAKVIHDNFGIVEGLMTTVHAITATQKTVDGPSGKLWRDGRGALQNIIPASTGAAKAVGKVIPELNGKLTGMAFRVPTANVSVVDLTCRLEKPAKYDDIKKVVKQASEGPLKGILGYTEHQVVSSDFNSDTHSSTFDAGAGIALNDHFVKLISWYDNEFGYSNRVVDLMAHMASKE

Chain of G-protein coupled receptor 55 (Q9Y2T6 whole entry): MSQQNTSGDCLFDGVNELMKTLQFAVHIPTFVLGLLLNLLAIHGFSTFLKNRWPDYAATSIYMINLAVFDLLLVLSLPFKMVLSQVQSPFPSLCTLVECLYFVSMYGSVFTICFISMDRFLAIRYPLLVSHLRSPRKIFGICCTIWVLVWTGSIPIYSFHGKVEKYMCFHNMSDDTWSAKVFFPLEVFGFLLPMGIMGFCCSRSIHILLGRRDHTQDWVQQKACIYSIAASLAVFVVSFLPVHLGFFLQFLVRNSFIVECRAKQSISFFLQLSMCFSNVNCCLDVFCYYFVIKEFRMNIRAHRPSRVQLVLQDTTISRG
T2 sequence (P63165 whole entry): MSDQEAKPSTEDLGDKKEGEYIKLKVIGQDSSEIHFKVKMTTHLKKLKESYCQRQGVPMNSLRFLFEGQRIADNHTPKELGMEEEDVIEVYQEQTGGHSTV
Chain of Melanocortin receptor 4 (P32245 whole entry): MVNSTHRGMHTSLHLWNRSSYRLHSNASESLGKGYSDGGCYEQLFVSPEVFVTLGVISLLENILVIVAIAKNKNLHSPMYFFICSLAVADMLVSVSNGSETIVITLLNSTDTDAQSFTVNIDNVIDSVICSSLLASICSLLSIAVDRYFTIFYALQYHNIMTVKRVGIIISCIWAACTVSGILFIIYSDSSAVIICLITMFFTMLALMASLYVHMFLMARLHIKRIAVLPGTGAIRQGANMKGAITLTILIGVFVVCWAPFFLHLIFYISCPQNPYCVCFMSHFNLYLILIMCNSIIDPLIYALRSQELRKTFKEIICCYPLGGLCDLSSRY
Chain of Glucose-6-phosphate 1-dehydrogenase (P11413 whole entry): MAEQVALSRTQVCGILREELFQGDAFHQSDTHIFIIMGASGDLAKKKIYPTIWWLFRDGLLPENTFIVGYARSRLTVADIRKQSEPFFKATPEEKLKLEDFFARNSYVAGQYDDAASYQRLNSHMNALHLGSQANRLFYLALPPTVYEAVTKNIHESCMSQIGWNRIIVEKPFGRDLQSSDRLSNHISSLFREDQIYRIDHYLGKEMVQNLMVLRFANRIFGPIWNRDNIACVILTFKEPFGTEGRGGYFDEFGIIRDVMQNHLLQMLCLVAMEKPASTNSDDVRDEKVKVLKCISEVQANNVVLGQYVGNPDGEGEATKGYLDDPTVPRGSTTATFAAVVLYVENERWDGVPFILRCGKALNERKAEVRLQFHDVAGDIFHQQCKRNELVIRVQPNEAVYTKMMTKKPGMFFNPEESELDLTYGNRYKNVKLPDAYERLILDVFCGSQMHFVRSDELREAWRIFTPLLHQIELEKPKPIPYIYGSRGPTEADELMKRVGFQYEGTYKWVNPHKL

In the case of `COc1cc(NCc2ccccc2)c2ncn(C(C)C)c2c1`, the IC50 [1] was > 80 µM (inactive).
With `CCCCc1ccc(NC(=O)N[C@H](C(=O)O)C(C)C)cc1` the IC50 (Leucine aminopeptidase) was 7.04 µM (active).
In the case of `O=C(CSc1nc(-c2ccccc2)c(-c2ccccc2)[nH]1)N1CCN(S(=O)(=O)c2ccccc2)CC1`, the IC50 [2] was 3.67 µM (active).
For `CCC(C)[C@@H](CN)NCC1(c2ccccc2)CC1` (stereo partly drawn), the IC50 [3] was > 66.6 µM (inactive) and the IC50 [4] was 18.4 µM (active).
In the case of `N#Cc1c(C(F)(F)F)cc(-c2ccccc2)nc1SCC(=O)Nc1sc2c(c1C#N)CCC2`, the EC50 (BJ [5]) was > 150 µM (not active), the CC50 [6] was > 40 µM (active) and the EC50 (BJ [7]) was > 150 µM (inconclusive). The EC50 (BJ [8]) was > 150 µM (not active) and the EC50 [9] was > 150 µM (inconclusive).
For `O=C(Nc1cccc(NC(=S)NC(=O)c2cccs2)c1)c1ccccc1`, the EC50 (Melanocortin receptor 4) was > 89.2 µM (inactive).
In the case of `COc1ccc(C2c3ccc(O)cc3Oc3ncn(Cc4ccco4)c(=N)c32)cc1` (stereo not drawn), the IC50 [2] was 1.41 µM (active) and the EC50 [10] was > 260 µM (inactive).
In the case of `O=C(Nc1ccc(Cl)cc1)Nc1nnc(CSCc2ccc(Cl)cc2)s1`, the AC50 (HEK293) was 3.92 µM (active) and the AC50 (INS1) was 3.99 µM (active).
In the case of `N#C/C(=C\c1c[nH]nc1-c1ccccc1Br)C(=O)O`, the IC50 [2] was 3.58 µM (active).
With `O=C1C(Cl)=C(N2CCN(C/C=C/c3ccccc3)CC2)C(=O)N1c1ccnc(Cl)c1` the IC50 [11] was > 50 µM (inconclusive).
For `O=C(c1ccc(-c2ccc(Cl)cc2)o1)N1CCN(S(=O)(=O)c2cccs2)CC1`, the CC50 [6] was 26 µM (active).
